According to patent US20150344444A1, “BET-PROTEIN-INHIBITING DIHYDROXYQUINOXALINONES” (BAYER PHARMA AKTIENGESELLSCHAFT, priority 2012, published 2015):

Assays:
MOLM-13 cells = assay: MOLM-13 cell proliferation assay (alamarBlue); format: cell-based; details: inhibition of cell proliferation, 96 hours, human AML cell line
Procedure, shortened: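 MOLM-13 AML cells (4000/well, RPMI1640 + 10% FCS) treated 96 h at 37 °C with 1E-5 to 1E-8 M compound. Proliferation by alamarBlue fluorescence (ex 530/em 590), pre-treatment reading subtracted; IC50 versus buffer-treated cells.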

B16F10 cells = assay: B16F10 cell proliferation assay (alamarBlue); format: cell-based; details: B16-F10; inhibition of cell proliferation, 96 hours, mouse melanoma cell line
Procedure, shortened: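 Mouse B16F10 melanoma cells (300-500/well, DMEM, 10% FCS) treated with compound at 1E-5 to 1E-8 M for 96 h at 37° C. alamarBlue fluorescence (ex 530/em 590 nm) before and after treatment; the difference compared to buffer-treated cells gives IC50 for proliferation inhibition.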

[1] = molecular target: T1, BRD4 Bromo Domain 1 [BRD4(1)] (Homo sapiens, UniProt O60885); assay: BRD4(1)/acetylated peptide H4 binding assay (TR-FRET); details: inhibition of interaction between His6-tagged BRD4(1) (amino acids 67-152) and acetylated histone H4 peptide
T1 construct: N-terminally His6-tagged BRD4(1) (amino acids 67-152); made in house; host or cells: E. coli
Procedure, shortened: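 His6-BRD4(1) (aa 67-152, E. coli), 10 nM final, with biotinylated tetra-acetylated H4 peptide in HEPES pH 7.5 buffer; 11 compound concentrations 0.1 nM-20 μM in duplicate, 10 min preincubation, then 1 h at 22 °C and ≥3 h at 4 °C. TR-FRET 665/620 ratio; IC50 by 4-parameter fit.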

Row | SMILES | IC50 (MOLM-13 cells) | IC50 (B16F10 cells) | IC50 [1]
1 | C[C@@H]1C(=O)N(C)c2ccc(Nc3ccc(C(=O)NC4CCC(N5CCN(CC6CC6)CC5)CC4)cc3)cc2N1Cc1c(F)cccc1F (stereo in doubt) [Example 40, N-{4-[4-(cyclopropylmethyl)piperazin-1-yl]cyclohexyl}-4-{[4-(2,6-difluorobenzyl)-1,3-dimethyl-2-oxo-1,2,3,4-tetrahydroquinoxalin-6-yl]amino}benzamide] | > 10 µM | 4.98 µM | 1.28 µM
2 | C[C@@H]1C(=O)N(C)c2ccc(Nc3ccc(C(=O)NC4CN(C)C4)cc3)cc2N1C1CCOCC1 [Example 34, 4-{[(3R)-1,3-dimethyl-2-oxo-4-(tetrahydro-2H-pyran-4-yl)-1,2,3,4-tetrahydroquinoxalin-6-yl]amino}-N-(1-methylazetidin-3-yl)benzamide] | 2.1 µM | 3.57 µM | 0.511 µM
3 | COc1ccc(CN2c3cc(Nc4ccc(C(=O)N5CCOCC5)cc4)ccc3N(C)C(=O)[C@H]2C)cc1 [Example 18, (3R)-4-(4-methoxybenzyl)-1,3-dimethyl-6-{[4-(morpholin-4-ylcarbonyl)phenyl]amino}-3,4-dihydroquinoxalin-2(1H)-one] | 0.257 µM | 0.287 µM | 0.19 µM
4 | CC(C)NC(=O)c1ccc(Nc2ccc3c(c2)N(C2CCCC2)[C@H](C)C(=O)N3C)cc1 [Example 7, 4-{[(3R)-4-cyclopentyl-1,3-dimethyl-2-oxo-1,2,3,4-tetrahydroquinoxalin-6-yl]amino}-N-isopropylbenzamide] | 1.44 µM | 1.02 µM | 0.167 µM
5 | C[C@@H]1C(=O)N(C)c2ccc(Nc3ccc(S(=O)(=O)N(C)C)cc3)cc2N1C1CCCC1 [Example 3, 4-{[(3R)-4-cyclopentyl-1,3-dimethyl-2-oxo-1,2,3,4-tetrahydroquinoxalin-6-yl]amino}-N,N-dimethylbenzenesulphonamide] | 0.289 µM | 0.327 µM | 0.063 µM
6 | C[C@@H]1C(=O)N(C)c2ccc(Nc3ccc(C(=O)NC4CCN(C)CC4)cc3)cc2N1C1CCCCCC1 [Example 23, 4-{[(3R)-4-cycloheptyl-1,3-dimethyl-2-oxo-1,2,3,4-tetrahydroquinoxalin-6-yl]amino}-N-(1-methylpiperidin-4-yl)benzamide] | 1.26 µM | 1.96 µM | 0.176 µM
7 | C[C@@H]1C(=O)N(C)c2ccc(Nc3ccc(C(=O)NCC4COC4)cc3)cc2N1C1CCOCC1 [Example 28, 4-{[(3R)-1,3-dimethyl-2-oxo-4-(tetrahydro-2H-pyran-4-yl)-1,2,3,4-tetrahydroquinoxalin-6-yl]amino}-N-(oxetan-3-ylmethyl)benzamide] | 2.76 µM | 2.83 µM | 0.366 µM
8 | C[C@@H]1C(=O)N(C)c2ccc(Nc3ccc(C(=O)N4CC5(COC5)C4)cc3)cc2N1C1CCOCC1 [Example 29] | 2.27 µM | 2.71 µM | 0.185 µM
9 | COc1ccc(CN2c3cc(Nc4ccc(S(=O)(=O)N(C)C)cc4)ccc3N(C)C(=O)[C@H]2C)cc1 [Example 41, 4-{[(3R)-4-(4-methoxybenzyl)-1,3-dimethyl-2-oxo-1,2,3,4-tetrahydroquinoxalin-6-yl]amino}-N,N-dimethylbenzenesulphonamide] | 0.145 µM | 0.175 µM | 0.183 µM
10 | COc1cc(C(=O)NC2CCC(N3CCN(CC4CC4)CC3)CC2)ccc1Nc1ccc2c(c1)N(C1CCOCC1)[C@H](C)C(=O)N2C (stereo partly drawn) [Example 37, N-{4-[4-(cyclopropylmethyl)piperazin-1-yl]cyclohexyl}-4-{[(3R)-1,3-dimethyl-2-oxo-4-(tetrahydro-2H-pyran-4-yl)-1,2,3,4-tetrahydroquinoxalin-6-yl]amino}-3-methoxybenzamide] | 1.08 µM | 1.51 µM | 0.422 µM
11 | COc1cc(C(=O)N2CCN(C)CC2)ccc1Nc1ccc2c(c1)N(C1CCOCC1)[C@H](C)C(=O)N2C [Example 38, (3R)-6-({2-methoxy-4-[(4-methylpiperazin-1-yl)carbonyl]phenyl}amino)-1,3-dimethyl-4-(tetrahydro-2H-pyran-4-yl)-3,4-dihydroquinoxalin-2(1H)-one] | 1.79 µM | 1.78 µM | 0.272 µM
12 | C[C@@H]1C(=O)N(C)c2ccc(Nc3ccc(C(=O)NCCN4CCN(C)CC4)cc3)cc2N1C1CCOCC1 [Example 30, 4-{[(3R)-1,3-dimethyl-2-oxo-4-(tetrahydro-2H-pyran-4-yl)-1,2,3,4-tetrahydroquinoxalin-6-yl]amino}-N-[2-(4-methylpiperazin-1-yl)ethyl]benzamide] | 1.7 µM | 2.68 µM | 0.384 µM
